A short description of test [1]: DRUGMATRIX: GABAA, Flunitrazepam, Central radioligand binding (ligand: [3H] Flunitrazepam). In kind it is cell membranes, Rattus norvegicus, Wistar, Brain, Membrane. The conditions noted are these: Not Active = under 50% inhibition at 10 µM.
Test [2] is described as follows: DRUGMATRIX: Atrial Natriuretic Factor (ANF) radioligand binding (ligand: [125I] ANF (rat)). In kind it is cell membranes, Cavia porcellus, Dunkin-Hartley, Adrenal gland, Membrane. As to conditions: Not Active = under 50% inhibition at 10 µM.
A short description of test [3]: DRUGMATRIX: Glutamate, Kainate radioligand binding (ligand: [3H] Kainic acid). In kind it is cell membranes, Rattus norvegicus, Wistar, Brain, Membrane. As to conditions: Not Active = under 50% inhibition at 10 µM.
Test [4] addresses C-C chemokine receptor type 2 (Homo sapiens, UniProt P41597). In kind it is cell membranes, CHO-K1, Membrane.
Test [5] deals with T1, 3-hydroxy-3-methylglutaryl-coenzyme A reductase (Homo sapiens, UniProt P04035).
T1 sequence (P04035 whole entry): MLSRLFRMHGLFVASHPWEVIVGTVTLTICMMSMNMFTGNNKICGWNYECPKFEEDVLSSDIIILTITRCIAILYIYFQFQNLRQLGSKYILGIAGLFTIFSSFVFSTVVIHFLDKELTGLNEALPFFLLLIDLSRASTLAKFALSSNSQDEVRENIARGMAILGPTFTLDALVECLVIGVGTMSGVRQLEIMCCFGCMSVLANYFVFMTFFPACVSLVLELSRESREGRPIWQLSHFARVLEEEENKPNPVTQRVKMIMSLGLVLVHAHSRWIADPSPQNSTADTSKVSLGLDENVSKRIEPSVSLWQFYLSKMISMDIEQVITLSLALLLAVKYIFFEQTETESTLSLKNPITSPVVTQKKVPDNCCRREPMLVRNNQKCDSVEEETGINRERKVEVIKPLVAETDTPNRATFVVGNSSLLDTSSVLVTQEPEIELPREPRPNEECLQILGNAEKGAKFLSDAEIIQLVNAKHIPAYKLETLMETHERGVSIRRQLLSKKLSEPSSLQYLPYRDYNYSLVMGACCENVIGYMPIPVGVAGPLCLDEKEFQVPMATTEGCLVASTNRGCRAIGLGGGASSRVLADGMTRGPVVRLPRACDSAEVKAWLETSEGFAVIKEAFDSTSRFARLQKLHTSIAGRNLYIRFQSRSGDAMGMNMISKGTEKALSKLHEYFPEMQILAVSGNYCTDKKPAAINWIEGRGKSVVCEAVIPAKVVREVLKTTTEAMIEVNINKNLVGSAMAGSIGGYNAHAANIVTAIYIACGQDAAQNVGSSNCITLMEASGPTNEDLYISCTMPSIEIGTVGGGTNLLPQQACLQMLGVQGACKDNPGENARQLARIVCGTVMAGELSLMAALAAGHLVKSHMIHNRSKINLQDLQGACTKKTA
Also noted: species or system Escherichia coli.

Test [6] has as its target 5-hydroxytryptamine receptor 2B (Homo sapiens, UniProt P41595). In kind it is cell membranes, CHO-K1, Membrane. The conditions noted are these: for Ki: read-out: Ki. On all read-outs here: in other assays of this panel Not Active means under 50% inhibition at 10 µM.
Test [7] can be described thus: DRUGMATRIX: Glutamate, AMPA radioligand binding (ligand: [3H] AMPA). The conditions noted are these: Not Active = under 50% inhibition at 10 µM. In kind it is cell membranes, Rattus norvegicus, Wistar, Cerebral cortex, Membrane.

Molecules are shown by their SMILES. Where a SMILES comes first, the peptide text is derived from it. Bridges are numbered along the chain shown (N, C = ends). [ ]: non-standard residue; d: D form. The star is where a group is joined. Threoninol(2S,3R) = C[C@@H](O)[C@H](CO)N*

Sequence of 5-hydroxytryptamine receptor 2B (P41595 whole entry): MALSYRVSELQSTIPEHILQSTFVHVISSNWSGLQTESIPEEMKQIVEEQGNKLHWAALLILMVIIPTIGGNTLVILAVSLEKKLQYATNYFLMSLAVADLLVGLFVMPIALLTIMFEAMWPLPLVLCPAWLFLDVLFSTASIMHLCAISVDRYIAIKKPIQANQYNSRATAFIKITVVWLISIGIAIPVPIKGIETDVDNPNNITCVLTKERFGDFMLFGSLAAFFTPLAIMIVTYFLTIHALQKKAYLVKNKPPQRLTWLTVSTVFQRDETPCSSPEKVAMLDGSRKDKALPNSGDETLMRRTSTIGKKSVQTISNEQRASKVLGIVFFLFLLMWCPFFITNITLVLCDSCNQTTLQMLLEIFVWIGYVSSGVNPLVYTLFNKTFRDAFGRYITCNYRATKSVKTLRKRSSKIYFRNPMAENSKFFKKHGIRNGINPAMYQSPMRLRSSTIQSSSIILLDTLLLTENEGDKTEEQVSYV
Sequence of C-C chemokine receptor type 2 (P41597 whole entry): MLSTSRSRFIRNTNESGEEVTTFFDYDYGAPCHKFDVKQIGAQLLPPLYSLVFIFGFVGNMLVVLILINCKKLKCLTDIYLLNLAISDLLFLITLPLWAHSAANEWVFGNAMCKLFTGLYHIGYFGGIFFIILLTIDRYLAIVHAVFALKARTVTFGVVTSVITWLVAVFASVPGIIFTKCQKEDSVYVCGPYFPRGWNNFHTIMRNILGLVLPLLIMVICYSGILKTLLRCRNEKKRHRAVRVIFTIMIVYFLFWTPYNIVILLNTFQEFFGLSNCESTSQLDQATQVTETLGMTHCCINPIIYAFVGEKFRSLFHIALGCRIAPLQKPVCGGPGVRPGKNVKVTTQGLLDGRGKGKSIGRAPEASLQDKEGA

Regarding `COc1ccccc1C(=O)N1CCC(Cc2ccccc2)CC1`, the IC50 result in test [1], in test [2], in test [3], in test [4] (cho-k1), in test [5] and in test [6] (cho-k1) was “Not Active” in each case. Also, the IC50 entry in test [7] was “Not Active”. The Ki result in test [1], in test [2], in test [3] and in test [7] was “Not Active” in each case.

For the molecule `Cc1ccccc1C(=O)N1CCC(Cc2ccccc2)CC1`, the IC50 entry is “Not Active” in test [1]; “Not Active” in test [2]; “Not Active” in test [3]; “Not Active” in test [4] (cho-k1); “Not Active” in test [5]; 1.86 µM in test [6] (read-out: IC50). Also, the IC50 result in test [7] is “Not Active”. Besides, the Ki entry in test [1] is “Not Active”; in test [2], “Not Active”; in test [3], “Not Active”; in test [6], 1.18 µM; in test [7] it was “Not Active”.

For the molecule `O=C1CC[C@H](N2C(=O)c3ccccc3C2=O)C(=O)N1`, the IC50 result in test [1], in test [2], in test [3], in test [4] (cho-k1), in test [5] and in test [6] (cho-k1) was “Not Active” in each case. Further, the IC50 result in test [7] is “Not Active”. The Ki result in test [1], in test [2], in test [3] and in test [7] was “Not Active” in each case.

`N=C(Nc1ccccc1)Nc1ccccc1`: the IC50 entry in test [1], in test [2], in test [3], in test [4] (cho-k1), in test [5] and in test [6] (cho-k1) was “Not Active” each time. The IC50 entry in test [7] is “Not Active”. The Ki entry in test [1], in test [2], in test [3] and in test [7] was “Not Active” throughout.

Regarding `C[C@@H](O)[C@H](CO)NC(=O)[C@@H]1CSSC[C@H](NC(=O)[C@H](N)Cc2ccccc2)C(=O)N[C@@H](Cc2ccccc2)C(=O)N[C@H](Cc2c[nH]c3ccccc23)C(=O)N[C@@H](CCCCN)C(=O)N[C@@H]([C@@H](C)O)C(=O)N1` (H-[dF]CF[dW]KTC-{Threoninol(2S,3R)}; disulfide 2-7), the IC50 entry in test [1], in test [2], in test [3], in test [4] (cho-k1), in test [5] and in test [6] (cho-k1) was “Not Active” each time. The IC50 result in test [7] is on record as “Not Active”. Also, the Ki result in test [1], in test [2], in test [3] and in test [7] was “Not Active” throughout.

On to `S=C=Nc1cccc2ccccc12` [1-NAPHTHYLISOTHIOCYANATE], for which the IC50 result is “Not Active” in test [1]; “Not Active” in test [2]; “Not Active” in test [3]; 6.7 µM in test [4] (read-out: IC50); “Not Active” in test [5]; 25.2 µM in test [6] (read-out: IC50). For the same molecule, the IC50 result in test [7] is recorded as “Not Active”. The Ki result in test [1] was “Not Active”; in test [2], “Not Active”; in test [3] it was “Not Active”; in test [4] (read-out: Ki) it was 2.59 µM; in test [6], 16 µM; in test [7], “Not Active”.

Turning to `C[C@](O)(CS(=O)(=O)c1ccc(F)cc1)C(=O)Nc1ccc(C#N)c(C(F)(F)F)c1` [(R)-BICALUTAMIDE], the IC50 result in test [1], in test [2], in test [3], in test [4] (cho-k1), in test [5] and in test [6] (cho-k1) was “Not Active” in each case. Moreover, the IC50 result in test [7] was “Not Active”. For the same molecule, the Ki entry in test [1], in test [2], in test [3] and in test [7] was “Not Active” throughout.
